# Test results from patent publication US12723063B2, “GIPR-agonist compounds” (Eli Lilly and Company, priority 2019, dated 2026).
# pKi: −log10 of the molar value. *1 amine or outer side, *2 acyl side, *3 side chain or, on linkers, in order; H or OH if unused. Where a SMILES comes first, the peptide text is derived from it. Side-chain parts run from the residue outwards. [ ]: non-standard residue; d: D form. The star is where a group is joined. C20 diacid = O=C(O)CCCCCCCCCCCCCCCCCCC(=O)*; C18 diacid = O=C(O)CCCCCCCCCCCCCCCCC(=O)*; αMePhe(2-F) = C[C@](N)(Cc1ccccc1F)C(=O)O; γGlu = O=C(O)[C@H](CCC(=O)[*:2])N[*:1]; 4Pal = N[C@@H](Cc1ccncc1)C(=O)O; αMeL = CC(C)C[C@](C)(N)C(=O)O; Orn = NCCC[C@H](N)C(=O)O; AEEA = NCCOCCOCC(=O)O; Aib = CC(C)(N)C(=O)O
# Legend:
# human GcgR = biological target: T1, human GcgR (Homo sapiens, UniProt P47871); assay: [125I]-Glucagon binding, SPA with WGA beads, 0.1% bacitracin; details: geometric mean, read-out: hGcgR Ki
# T1 construct: expressed in transfected cells; crude membranes
# T1 sequence (P47871 26-477): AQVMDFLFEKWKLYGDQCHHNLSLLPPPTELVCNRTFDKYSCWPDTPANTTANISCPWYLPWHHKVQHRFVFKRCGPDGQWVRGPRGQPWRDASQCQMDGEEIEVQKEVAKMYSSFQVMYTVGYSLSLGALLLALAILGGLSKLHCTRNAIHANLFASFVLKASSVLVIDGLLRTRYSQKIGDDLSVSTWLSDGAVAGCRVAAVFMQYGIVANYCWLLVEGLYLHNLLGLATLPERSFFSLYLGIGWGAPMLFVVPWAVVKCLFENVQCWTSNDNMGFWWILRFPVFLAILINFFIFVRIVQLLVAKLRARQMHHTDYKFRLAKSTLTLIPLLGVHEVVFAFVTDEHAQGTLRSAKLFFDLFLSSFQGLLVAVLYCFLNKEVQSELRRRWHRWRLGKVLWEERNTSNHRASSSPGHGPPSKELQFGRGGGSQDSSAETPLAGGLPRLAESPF
# In short: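 SPA competition binding with WGA beads on crude membranes from HEK293 cells stably expressing hGcgR. Buffer: 25 mM HEPES pH 7.4, 2.5 mM CaCl2, 1 mM MgCl2, 0.1% bacitracin, 0.003% Tween-20; 10-point 3-fold dilutions, NSB with 1 μM Gcg.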
# [1] = biological target: T2, human GLP-1 receptor (GLP-1R) (Homo sapiens, UniProt P43220); assay: cAMP functional assay (HTRF) in HEK293 cells in presence of 0.1% casein; type: cell-based; details: HEK293 cells expressing human GLP-1R, geometric mean, read-out: hGLP1R cAMP Rel EC50 nM (SEM, n)
# T2 construct: expressed in transfected cells; host or cells: HEK293
# T2 sequence (P43220 24-463): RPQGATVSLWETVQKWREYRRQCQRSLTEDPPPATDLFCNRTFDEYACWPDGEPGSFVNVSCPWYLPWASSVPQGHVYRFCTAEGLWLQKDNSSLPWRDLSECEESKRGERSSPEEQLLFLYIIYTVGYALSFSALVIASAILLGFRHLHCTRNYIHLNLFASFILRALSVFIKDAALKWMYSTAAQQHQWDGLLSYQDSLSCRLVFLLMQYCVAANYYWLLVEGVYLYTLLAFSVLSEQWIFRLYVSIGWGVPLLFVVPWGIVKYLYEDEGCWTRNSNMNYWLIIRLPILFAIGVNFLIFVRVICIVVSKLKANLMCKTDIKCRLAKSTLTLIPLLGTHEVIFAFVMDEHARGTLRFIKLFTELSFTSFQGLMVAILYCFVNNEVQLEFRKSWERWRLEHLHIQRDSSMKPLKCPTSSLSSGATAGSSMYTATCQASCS
# [2] = biological target: T3, human glucagon receptor (GcgR) (Homo sapiens, UniProt P47871); assay: as above; type: cell-based; details: HEK293 cells expressing human GcgR, geometric mean, read-out: hGcgR cAMP Rel EC50 nM (SEM, n)
# T3 construct: expressed in transfected cells; host or cells: HEK293
# T3 sequence (P47871 26-477): as the sequence (P47871 26-477) above
Compound,pKi (human GcgR),EC50 [1],EC50 [2]
CC[C@H](C)[C@H](NC(=O)[C@H](CO)NC(=O)[C@H](Cc1ccc(O)cc1)NC(=O)[C@H](CC(=O)O)NC(=O)[C@H](CO)NC(=O)[C@@H](NC(=O)[C@](C)(Cc1ccccc1F)NC(=O)[C@@H](NC(=O)CNC(=O)[C@H](CCC(=O)O)NC(=O)[C@H](C)NC(=O)[C@@H](Cc1ccc(O)cc1)NC(C)=O)[C@@H](C)O)[C@@H](C)CC)C(=O)N[C@@H](C)C(=O)N[C@@H](CC(C)C)C(=O)N[C@@H](CC(=O)O)C(=O)N[C@@H](CCCCN)C(=O)N[C@@H](CCCCNC(=O)COCCOCCNC(=O)COCCOCCNC(=O)CC[C@H](NC(=O)CCCCCCCCCCCCCCCCC(=O)O)C(=O)O)C(=O)N[C@@H](Cc1c[nH]cn1)C(=O)N[C@@H](CCC(N)=O)C(=O)NC(C)(C)C(=O)N[C@@H](CCC(=O)O)C(=O)N[C@@H](Cc1ccccc1)C(=O)N[C@H](C(=O)N[C@@H](CC(N)=O)C(=O)N[C@@H](Cc1ccc(O)cc1)C(=O)N[C@@H](CC(C)C)C(=O)N[C@@H](CC(C)C)C(=O)N[C@@H](C)C(=O)NCC(=O)NCC(=O)N1CCC[C@H]1C(=O)N[C@@H](CO)C(=O)N[C@@H](CO)C(=O)NCC(=O)N[C@@H](C)C(=O)N1CCC[C@H]1C(=O)N1CCC[C@H]1C(=O)N1CCC[C@H]1C(=O)N[C@@H](CO)C(N)=O)C(C)C [Example 30] (Ac-[dY]AEGT[αMePhe(2-F)]ISDYSIALDKK([AEEA-AEEA-γGlu-C18 diacid])HQ[Aib]EFVNYLLAGGPSSGAPPPS-NH2),6.39,> 5000 nM,> 5000 nM
CC[C@H](C)[C@H](NC(=O)[C@H](CCCN)NC(=O)[C@H](CC(=O)O)NC(=O)[C@H](CC(C)C)NC(=O)[C@](C)(CC(C)C)NC(=O)[C@@H](NC(=O)[C@H](CO)NC(=O)[C@H](Cc1ccc(O)cc1)NC(=O)[C@H](CC(=O)O)NC(=O)[C@H](CO)NC(=O)[C@@H](NC(=O)[C@H](Cc1ccccc1)NC(=O)[C@@H](NC(=O)CNC(=O)[C@H](CCC(=O)O)NC(=O)C(C)(C)NC(=O)[C@@H](N)Cc1ccc(O)cc1)[C@@H](C)O)[C@@H](C)CC)[C@@H](C)CC)C(=O)N[C@@H](Cc1c[nH]cn1)C(=O)N[C@@H](CCC(N)=O)C(=O)NC(C)(C)C(=O)N[C@@H](CCC(=O)O)C(=O)N[C@@H](Cc1ccccc1)C(=O)N[C@H](C(=O)N[C@@H](CCC(=O)O)C(=O)N[C@@H](Cc1ccc(O)cc1)C(=O)N[C@@H](CCCCNC(=O)COCCOCCNC(=O)COCCOCCNC(=O)CC[C@H](NC(=O)CCCCCCCCCCCCCCCCCCC(=O)O)C(=O)O)C(=O)N[C@@H](CC(C)C)C(=O)N[C@@H](CCC(=O)O)C(=O)N[C@@H](C)C(=O)NCC(=O)N1CCC[C@H]1C(=O)N[C@@H](CO)C(=O)N[C@@H](CO)C(=O)NCC(=O)N[C@@H](C)C(=O)N1CCC[C@H]1C(=O)N1CCC[C@H]1C(=O)N1CCC[C@H]1C(=O)N[C@@H](CO)C(N)=O)C(C)C [Example 104] (H-Y[Aib]EGTFISDYSI[αMeL]LD[Orn]IHQ[Aib]EFVEYK([AEEA-AEEA-γGlu-C20 diacid])LEAGPSSGAPPPS-NH2),< 6.02,> 5000 nM,> 5000 nM
CC[C@H](C)[C@H](NC(=O)[C@H](Cc1ccccc1)NC(=O)[C@@H](NC(=O)CNC(=O)[C@H](CCC(=O)O)NC(=O)C(C)(C)NC(=O)[C@@H](N)Cc1ccc(O)cc1)[C@@H](C)O)C(=O)N[C@@H](CO)C(=O)N[C@@H](CC(=O)O)C(=O)N[C@@H](Cc1ccc(O)cc1)C(=O)N[C@@H](CO)C(=O)N[C@H](C(=O)N[C@@](C)(CC(C)C)C(=O)N[C@@H](CC(C)C)C(=O)N[C@@H](CC(=O)O)C(=O)N[C@@H](CCCCN)C(=O)N[C@@H](CCCCNC(=O)COCCOCCNC(=O)COCCOCCNC(=O)CC[C@H](NC(=O)CCCCCCCCCCCCCCCCCCC(=O)O)C(=O)O)C(=O)N[C@@H](Cc1c[nH]cn1)C(=O)N[C@@H](CCC(N)=O)C(=O)NC(C)(C)C(=O)N[C@@H](CC(=O)O)C(=O)N[C@@H](Cc1ccccc1)C(=O)N[C@H](C(=O)N[C@@H](CCC(=O)O)C(=O)N[C@@H](Cc1ccncc1)C(=O)N[C@@H](CC(C)C)C(=O)N[C@@H](CC(C)C)C(=O)N[C@@H](C)C(=O)N[C@@H](CCC(N)=O)C(=O)NCC(=O)N1CCC[C@H]1C(=O)N[C@@H](CO)C(=O)N[C@@H](CO)C(=O)NCC(=O)N[C@@H](C)C(=O)N1CCC[C@H]1C(=O)N1CCC[C@H]1C(=O)N1CCC[C@H]1C(=O)N[C@@H](CO)C(N)=O)C(C)C)[C@@H](C)CC [Example 79] (H-Y[Aib]EGTFISDYSI[αMeL]LDKK([AEEA-AEEA-γGlu-C20 diacid])HQ[Aib]DFVE[4Pal]LLAQGPSSGAPPPS-NH2),6.05,> 5000 nM,> 5000 nM
CC[C@H](C)[C@H](NC(=O)[C@H](CCCN)NC(=O)[C@H](CC(=O)O)NC(=O)[C@H](CC(C)C)NC(=O)[C@](C)(CC(C)C)NC(=O)[C@@H](NC(=O)[C@H](CO)NC(=O)[C@H](Cc1ccc(O)cc1)NC(=O)[C@H](CC(=O)O)NC(=O)[C@H](CO)NC(=O)[C@@H](NC(=O)[C@H](Cc1ccccc1)NC(=O)[C@@H](NC(=O)CNC(=O)[C@H](CCC(=O)O)NC(=O)C(C)(C)NC(=O)[C@@H](N)Cc1ccc(O)cc1)[C@@H](C)O)[C@@H](C)CC)[C@@H](C)CC)C(=O)N[C@@H](Cc1c[nH]cn1)C(=O)N[C@@H](CCC(N)=O)C(=O)NC(C)(C)C(=O)N[C@@H](CC(=O)O)C(=O)N[C@@H](Cc1ccccc1)C(=O)N[C@H](C(=O)N[C@H](CCC(=O)O)C(=O)N[C@@H](Cc1ccc(O)cc1)C(=O)N[C@@H](CCCCNC(=O)COCCOCCNC(=O)COCCOCCNC(=O)CC[C@H](NC(=O)CCCCCCCCCCCCCCCCCCC(=O)O)C(=O)O)C(=O)N[C@@H](CC(C)C)C(=O)N[C@@H](CCC(=O)O)C(=O)NCC(=O)NCC(=O)N1CCC[C@H]1C(=O)N[C@@H](CO)C(=O)N[C@@H](CO)C(=O)NCC(=O)N[C@@H](C)C(=O)N1CCC[C@H]1C(=O)N1CCC[C@H]1C(=O)N1CCC[C@H]1C(=O)N[C@@H](CO)C(N)=O)C(C)C [Example 101],< 6.02,> 5000 nM,> 5000 nM
CC[C@H](C)[C@H](NC(=O)[C@H](CO)NC(=O)[C@H](Cc1ccc(O)cc1)NC(=O)[C@H](CC(=O)O)NC(=O)[C@H](CO)NC(=O)[C@@H](NC(=O)[C@H](Cc1ccccc1)NC(=O)[C@@H](NC(=O)CNC(=O)[C@H](CCC(=O)O)NC(=O)[C@@H](C)NC(=O)[C@@H](N)Cc1ccc(O)cc1)[C@@H](C)O)[C@@H](C)CC)C(=O)N[C@@H](CC(C)C)C(=O)N[C@@H](CC(C)C)C(=O)N[C@@H](CC(=O)O)C(=O)N[C@@H](CCCCN)C(=O)N[C@@H](CCCCNC(=O)COCCOCCNC(=O)COCCOCCNC(=O)CC[C@H](NC(=O)CCCCCCCCCCCCCCCCC(=O)O)C(=O)O)C(=O)N[C@@H](C)C(=O)N[C@@H](CCC(N)=O)C(=O)NC(C)(C)C(=O)N[C@@H](CCC(=O)O)C(=O)N[C@@H](Cc1ccccc1)C(=O)N[C@H](C(=O)N[C@@H](CCC(N)=O)C(=O)N[C@@H](Cc1c[nH]c2ccccc12)C(=O)N[C@@H](CC(C)C)C(=O)N[C@@H](CC(C)C)C(=O)N[C@@H](C)C(=O)NCC(=O)NCC(=O)N1CCC[C@H]1C(=O)N[C@@H](CO)C(=O)N[C@@H](CO)C(=O)NCC(=O)N[C@@H](C)C(=O)N1CCC[C@H]1C(=O)N1CCC[C@H]1C(=O)N1CCC[C@H]1C(=O)N[C@@H](CO)C(N)=O)C(C)C [Example 27] (H-Y[dA]EGTFISDYSILLDKK([AEEA-AEEA-γGlu-C18 diacid])AQ[Aib]EFVQWLLAGGPSSGAPPPS-NH2),6.40,> 5000 nM,> 5000 nM
CC[C@H](C)[C@H](NC(=O)[C@H](CCCCN)NC(=O)[C@H](CC(=O)O)NC(=O)[C@H](CC(C)C)NC(=O)[C@](C)(CC(C)C)NC(=O)[C@@H](NC(=O)[C@H](CO)NC(=O)[C@H](Cc1ccc(O)cc1)NC(=O)[C@H](CC(=O)O)NC(=O)[C@H](CO)NC(=O)[C@@H](NC(=O)[C@H](Cc1ccccc1)NC(=O)[C@@H](NC(=O)CNC(=O)[C@H](CCC(=O)O)NC(=O)C(C)(C)NC(=O)[C@@H](N)Cc1ccc(O)cc1)[C@@H](C)O)[C@@H](C)CC)[C@@H](C)CC)C(=O)N[C@@H](CCCNC(=N)N)C(=O)N[C@@H](CCC(N)=O)C(=O)NC(C)(C)C(=O)N[C@@H](CC(=O)O)C(=O)N[C@@H](Cc1ccccc1)C(=O)N[C@H](C(=O)N[C@@H](CCC(=O)O)C(=O)N[C@@H](Cc1ccc(O)cc1)C(=O)N[C@@H](CCCCNC(=O)COCCOCCNC(=O)COCCOCCNC(=O)CC[C@H](NC(=O)CCCCCCCCCCCCCCCCCCC(=O)O)C(=O)O)C(=O)N[C@@H](CC(C)C)C(=O)N[C@@H](CCC(=O)O)C(=O)NCC(=O)NCC(=O)N1CCC[C@H]1C(=O)N[C@@H](CO)C(=O)N[C@@H](CO)C(=O)NCC(=O)N[C@@H](C)C(=O)N1CCC[C@H]1C(=O)N1CCC[C@H]1C(=O)N1CCC[C@H]1C(=O)N[C@@H](CO)C(N)=O)C(C)C [Example 115] (H-Y[Aib]EGTFISDYSI[αMeL]LDKIRQ[Aib]DFVEYK([AEEA-AEEA-γGlu-C20 diacid])LEGGPSSGAPPPS-NH2),6.43,> 5000 nM,> 5000 nM
